Reference: paper PMC7176276, “Elucidating the possible mechanism of action of some pathogen box compounds against Leishmania donovani” (PLoS Neglected Tropical Diseases, 2020)

Columns and labels:
[1] = system: Leishmania donovani promastigotes; test: In vitro antileishmanial activity assay, promastigotes (MTT); assay type: cell-based; settings: for Therapeutic Index (TC50/IC50) promastigotes: TC50 RAW 264.7 / IC50 promastigotes
[2] = system: RAW 264.7 macrophage cell line; test: Cytotoxicity test against RAW macrophage cell line using MTT assay; assay type: cell-based, murine; settings: RAW 264.7, 48 hours
Description: A murine macrophage cell line (RAW 264.7) was cultured in DMEM medium supplemented with penicillin G sodium (100 μg/mL), streptomycin sulfate (100 μg/mL) and 10% FBS. Macrophages at a density of 1 x 10^6 cells/mL were incubated at different concentrations (ranging from 0.39–100 μg/mL) of the compounds for 48 hours in a CO2 incubator (5% CO2, 37° C). Macrophages without any treatment were taken as negative control and amphotericin B was used as positive control. At the termination of the assay, MTT was added and incubated for an additional 3 hours. Acidified isopropanol was added to the set-up to solubilize the formazan crystals formed by the viable cells. The intensity of formazan formation was read on an Elisa plate reader (Varioskan Lux Elisa microplate reader, Thermo Fischer Scientific, USA) at 570 nm. The 50% cytotoxic concentrations (CC50) of the compounds were determined by analysis of dose-response curves. Selectivity index or therapeutic index was calculated as a ratio of CC50 RAW 264.7/IC50 L. donovani promastigotes or amastigotes.

[3] = system: Leishmania donovani promastigotes; test: Growth kinetics assay against promastigotes; assay type: cell-based; settings: for incubation time after which decline in the parasite population was observed: promastigotes, 1μg/mL
Description: Promastigotes of L. donovani (2 x 10^4 cells) were incubated at 25° C in the presence of the test compounds (at 1μg/mL for each compound) in M199 containing 10% FBS (complete medium). Promastigotes treated with amphotericin B (0–50 μg/ml) served as positive control while untreated promastigotes in the medium alone served as negative control. Aliquots from treated and control parasites were diluted in 0.02 M PBS (pH 7.2) and the viable cells counted daily for 5 days using a Neubauer haemocytometer and a phase-contrast microscope under a 40x objective.

[4] = system: Leishmania donovani amastigotes; test: In vitro antileishmanial activity assay, macrophage-amastigotes model (MTT); assay type: cell-based; settings: TC50 RAW 264.7 / IC50 amastigotes
Description: Leishmania donovani (MHOM/SD/62/1S strain) was a kind gift from Dr. Yamthe Lauve (Bei Resources NIAID, NIH). The promastigotes were cultured in M199 medium supplemented with 10% heat-inactivated fetal bovine serum (FBS), penicillin G sodium (100 μg/mL) and streptomycin sulfate (100 μg/mL) at 25° C and subcultured every 72 hours in the same medium at a mean density of 1 x 10^5 cells/mL [9]. The murine macrophage cell line RAW 264.7 (RIKEN BioResource Centre Cell Bank, Japan) were kindly provided by Professor Regina Appiah-Opong of the Clinical Pathology Department, Noguchi Memorial Institute for Medical Research, Ghana. RAW 264.7 were grown at 37° C in DMEM medium (pH 7.4) supplemented with 10% heat-inactivated FBS for 48–72 hours in 5% CO2 and subcultured in fresh DMEM medium at a mean density of 1 x 10^5 cells/mL.
Amphotericin B was used as a reference antileishmanial drug (positive control). RAW 264.7 macrophage cells were infected with promastigotes at a density of 1:10 ratio for 12 hours, after which the non-phagocytosed promastigotes were discarded (by aspirating them alongside the media) and the amastigote cells within the macrophages were treated with the compounds (in fresh complete media) to test their growth inhibitory activity using the method described previously. Parasite viability was assessed using the 3-(4,5-Dimethylthiazol-2-yl)-2,5-diphenyltetrazolium bromide (MTT) method in which the rate of formazan crystal formation was used as an index of cell viability as described by Mosmann. Fluorescence was measured with a Varioskan Lux Elisa microplate reader (Thermo Fischer Scientific, USA) at a wavelength of 570 nm. The fluorescence counts were plotted against the drug concentrations and the 50% inhibitory concentration (IC50) was determined by analysis of the dose-response curves using excel.

human red blood cells = test: Haemolysis assay against the human red blood cells; assay type: cell-based; settings: 2% haematocrit, 3 hours
Description: The haemolytic effect of the compounds were tested against the human red blood cells at a density of 2% haematocrit. The method described by Kazi et al was used with slight modification. In this study, human red blood cells were used, the respective test compounds were incubated for 3 hours and 1% triton X100 served as the positive control. At the end of the assay the supernatant was read on a microtiter plate reader (Varioskan Lux Elisa microplate reader, Thermo Fischer Scientific, USA) at 415 nm. The 50% haemolytic concentration (HC50) of the compounds were determined by analysis of dose-response curves.

[5] = system: Leishmania donovani promastigotes; test: Growth reversibility assay (cytocidal/cytostatic) against promastigotes; assay type: cell-based; settings: for cytocidal or cytostatic effect: growth reversibility profile after drug withdrawal; for reversibility of growth inhibition / growth reversal: promastigotes washed after 5 days of treatment; for reversibility of growth inhibition: regrown 4 days; for growth reversal: regrown 4 days in fresh medium
Description: However, to confirm the cytocidal or cytostatic effect of the test compounds, the treated and untreated parasites after 5 days of incubation were washed twice with fresh M199 and then resuspended in complete M199 media and allowed to grow further at 25° C; the viable promastigotes were enumerated microscopically after 4 days.

[6] = system: Leishmania donovani promastigotes; test: Morphological and mitochondrion integrity analysis by fluorescence microscopy (DAPI, MitoTracker); assay type: cell-based; settings: 1μg/mL; for parasite cells with degeneration/disintegration of DNA (nucleus, kinetoplast) and mitochondrion: 72 hours
Description: Leishmania donovani promastigotes (2 x 10^4 cells) were treated with the test compounds at 1μg/mL (point concentration). They were then incubated for 24 hours and 72 hours in order to study their morphological changes and to see the changes in their mitochondrial integrity using DAPI and MitoTracker red dye respectively. The assay was performed using the methods described by Amisigo et al with slight modifications. Here the Mitotracker red dye was added to the pelleted promastigote cells at a concentration of 100 nM, resuspended in 1 mL of FBS-free M199 media with 1% BSA (Bovine Serum Albumin) and incubated for 30 minutes.

[7] = system: Leishmania donovani promastigotes; test: Cell cycle progression analysis by flow cytometry; assay type: cell-based; settings: 2x IC50, 24 hours; for change in the number of cells at the G2/M phase: versus untreated
Description: Guava Cell Cycle Reagent (catalog No. 4500–0220) was used to stain the cells and the number of cells in G0/G1, S and G2/M phases were determined. Briefly, treated and untreated cells were pelleted and fixed in 70% ice-cold ethanol for an hour at -20°C, the suspended cells were then pelleted by centrifugation at 1500 rpm for 10 minutes. The supernatants were discarded, and the pelleted cells were washed twice with 1X PBS to ensure total removal of the ethanol. To a 200 μL of the cell pellets, a 200 μL of the Gauva Cell Cycle Reagent was added and incubated at room temperature (25°C) for 30 minutes in the dark. Cell distribution at the distinct cell cycle phases were measured using flow cytometer (BD LSR Fortessa X-20 analyzer BD Biosciences San Jose, CA 95131 USA). Data generated were analyzed using the FlowJo V10 software.

[8] = system: Leishmania donovani promastigotes; test: Apoptotic and necrotic potentials, Annexin V-FITC/PI flow cytometry; assay type: cell-based; settings: 2x IC50, 24 hours; far less than in the untreated cells
Description: Briefly, treated promastigote cells were washed twice with cold 1x PBS and then resuspended in 1x binding buffer at a cell density of 1 x 10^6 cells/mL. To a 100 μL of the suspended cells, 5 μL of Annexin V-FITC and 5 μL of Propidium Iodide (PI) were added. The mixture was gently vortexed and allowed to incubate for 15 minutes at room temperature (25°C) in the dark. To the set-up, 400 μL of 1x binding buffer was added and the assay was read by flow cytometry (BD LSR Fortessa X-20 analyzer BD Biosciences, San Jose, CA 95131 USA) and the results analyzed using FlowJo version 10 software.

[9] = system: Leishmania donovani promastigote; set-up: method as in PMID 25690568; settings: earlier report ref 18; cited from earlier work
[10] = system: Leishmania donovani amastigote; set-up: method as in PMID 25690568; settings: earlier report ref 18; cited from earlier work
L. major = system: L. major; set-up: method as in PMID 25690568; settings: earlier report ref 18; cited from earlier work
L. infantum = system: L. infantum; set-up: method as in PMID 25690568; settings: earlier report ref 18; cited from earlier work

| SMILES | Therapeutic Index (TC50/IC50) promastigotes [1] | TC50(μM)±SD RAW [2] [µM] | Therapeutic Index (TC50/IC50) amastigotes [4] | HC50 (50% haemolytic concentration) (human red blood cells) [µg/mL] | incubation time after which decline in the parasite population was observed [3] [h] | cytocidal or cytostatic effect [5] | reversibility of growth inhibition [5] | parasite cells with degeneration/disintegration of DNA (nucleus, kinetoplast) and mitochondrion [6] | cells at the S phase [7] [%] | change in the number of cells at the G2/M phase [7] | apoptosis and necrosis of promastigotes [8] | parasite cells showing no obvious DNA and mitochondrion abnormality ([6]; 24 hours) | growth reversal [5] [%] | further results |
| --- | --- | --- | --- | --- | --- | --- | --- | --- | --- | --- | --- | --- | --- | --- |
| C[C@@H]1[C@H](O)[C@@H](C)/C=C/C=C/C=C/C=C/C=C/C=C/C=C/[C@H](O[C@@H]2O[C@H](C)[C@@H](O)[C@H](N)[C@@H]2O)C[C@@H]2O[C@](O)(C[C@@H](O)C[C@@H](O)[C@H](O)CC[C@@H](O)C[C@@H](O)CC(=O)O[C@H]1C)C[C@H](O)[C@H]2C(=O)O [Amphotericin B, amphotericin B, reference compound] | 3.0 | 15.75 ± 0.03 |  |  |  |  |  |  |  |  |  |  |  | IC50 ([1]; Leishmania donovani, 96 h, promastigotes, 4 days at 25° C, MTT, mean ±SD of three experiments): 5.3 ± 0.03 µM; effect on growth of promastigotes (growth kinetics) ([3]; viable cells counted daily for 5 days, compared with untreated control): no viable cells observed after 24 hours |
| CC(C)(C)C(O)C(Oc1ccc(-c2ccccc2)cc1)n1cncn1 (centres unmarked) [MMV688942] | 43 |  | 16 | >100 | 48 | cytocidal | not reversible | 85% | 28 | no significant change | slight apoptosis and necrosis |  |  | parasites showing loss of kinetoplast ([6]; 24 hours): about 30% |
| CC(C)(C)OC(=O)N1CCN(c2[nH]nnc2-c2ccc(Oc3ccccc3)cc2)CC1 [MMV676057] | 432 |  | 16 | >100 | 48 | cytocidal | not reversible | about 85% | 23 | no significant change | slight apoptosis and necrosis | About 70% |  | cells at the G0-G1 phase ([7]; untreated 30%): 23%; IC50 [9]: 1.3 µM; IC50 [10]: > 10 µM; IC50 (L. major): 13 µM; IC50 (L. infantum): 10.2 µM |
| Cc1nn2c(=O)c3c([nH]c2c1-c1ccc(Cl)cc1)CCCC3 [MMV688776] | 19 | 50 ± 0.02 | 1 | >100 | 24 | cytostatic |  | About 70% |  |  |  | About 70% | 57.9 |  |
| CCc1nn(C)c(C(=O)NCc2ccc(Oc3ccc(C)cc3)cc2)c1Cl [MMV688934] | 416 |  | 453 | >100 | 24 | cytostatic |  | more than 90% |  |  |  |  | 32.3 | promastigotes showing enlargement of the nucleus and kinetoplast with the mitochondria losing its normal shape ([6]; 24 hours): 70% |
| CNC(=O)C1Cc2ccccc2N1C(=O)Cc1ccc(F)cc1 (centres unmarked) [MMV188296] | 914 |  | 237 | >100 | 48 | cytostatic |  | more than 90% |  |  |  |  | 56.5 | parasite population with loss in mitochondrion integrity ([6]; 24 hours): 40% |
